In PMC6778101 (Nature Communications, 2019):
Where two headings read alike, the source gives them in different places. Ends that are not written are not given here.

Legend:
Format in all cases: cell-based, Escherichia coli
E. coli K-12 BW25113 = experiment: microbe, parasite or virus in culture
Source text: Unless otherwise indicated, Minimal Salt (MS) medium was used in all experiments, including the laboratory evolution experiments. In line with previous, methodologically relevant laboratory evolution studies, the physical conditions (including the medium) were the same during the course of laboratory evolution and all forthcoming assays on the resulting resistant lines (e.g. MIC measurements). We previously optimized this medium for studying AMPs (1 g L^−1 (NH4)2SO4, 3 g L^−1 KH2PO4 and 7 g L^−1 K2HPO4 supplemented with 0.1 mM MgSO4, 0.54 µg mL^−1 FeCl3, 1 µg mL^−1 thiamine hydrochloride, 0.2% Casamino acids and 0.2% glucose)[19]. This medium is highly controlled and provides a reproducible environment for experimental evolution experiments. All components were obtained from Sigma-Aldrich.
MICs were determined using a standard serial broth dilution technique. Briefly, 11-step serial dilutions were prepared in 96-well microtiter plates with three replicates per strain and antimicrobial compound. Each experiment was repeated at least twice. 5 × 10^5 cells/mL were inoculated into each well, and the plates were incubated at 30 °C in case of E. coli K-12 BW25113, and its antibiotic and AMP-adapted lines, or 37 °C in case of the other bacterial species. […] Cell growth was monitored by measuring the optical density (OD600 value, Biotek Synergy 2 microplate reader was used for this purpose). […] Relative MIC was calculated as follows: MICrelative = MICevolved/MICcontrol.

[1] = tested on: antibiotic- and AMP-adapted E. coli K-12 BW25113 lines; experiment: High-throughput fitness measurement of adapted lines (area under growth curve, drug-free medium); details: adapted line APC1
Source text: We estimated fitness by measuring growth of these strains and the corresponding wild-type in antibiotic-free medium (“Methods”). […] As might be expected, fitness costs varied substantially across antibiotics and AMPs (Fig. 1b). […] This pattern is unlikely to reflect differences in the level of resistance between AMP and antibiotic strains, respectively. There is only a weak, marginally significant negative correlation between the level of resistance and fitness cost (Supplementary Fig. 1, Spearman’s rho = −0.24, P = 0.016 (N = 98)), and this correlation becomes non-significant after controlling for drug type (P = 0.6 and P = 0.39 for antibiotics (N = 60) and AMPs (N = 38) respectively, Spearman’s correlation).
Bacterial cell growth was assayed by continuously monitoring the optical density (OD600) of liquid cultures using 384-well microtiter plates containing MS medium, the same medium used during the laboratory evolution. Fitness was measured for a total of 60 antibiotic-adapted and the 38 AMP-adapted E. coli K-12 BW25113 lines (at least four lines per antibiotic or AMP). All measurements were performed twice (six technical replicates per experiment). Starter cultures were inoculated into 96-well plates containing MS medium and incubated for 20 h at 30 °C for E. coli K-12 BW25113 and its evolved lines. After this growth period, the OD600 of each culture was read and the starting cell number set to a final of 50,000 cells per well to a final volume of 60 µl. A total of 384-well plates were inoculated combining four different 96-well starter plates together: one plate having the unevolved wild-type control as a reference strain in all wells in order to estimate possible variation in growth within-plate measurement causing biases to the reading, and three plates containing the different set of antibiotic or AMP-adapted lines. Cell growth was monitored by measuring the optical density at 600 nm every 5 min (OD600 value, Biotek Synergy 2 microplate reader was used for this purpose). The integral data was calculated by the Biotek Gen5 Data Analysis Software between 1 and 24 h in case of E. coli K-12 BW25113 adapted lines. Because of possible influence of temperature equilibration in the first hour of measurement, this time period was excluded from the analysis.

[2] = tested on: E. coli K-12 BW25113 carrying ASKA plasmids; experiment: microbe, parasite or virus in culture; details: MS medium + 10 µg mL−1 CHL + 500 µM IPTG, 5 × 10^5 cells, 16–18 h, 37 °C; for MIC: Escherichia coli
Source text: Bacterial gene amplification generates extensive genetic variation that can provide drug resistance[37],[38]. As gene amplification events tend to be genetically unstable and reduce bacterial fitness, they are transient in nature. Using the ASKA library, which comprises each E. coli ORF cloned into an expression vector[40], we have conducted a global survey to evaluate whether artificially amplified genes provide resistance to any of the 14 AMPs and 11 antibiotics tested. As chloramphenicol (CHL) was used as a selection marker for the ASKA plasmid, this antibiotic was not tested in this screen. E. coli K-12 BW25113 cells were transformed with the pooled plasmids of the ASKA library, and the genetically mixed populations were exposed to increasing levels of AMP or antibiotic stresses, respectively. In all cases, the employed AMP or antibiotic dosages were above the MIC of the wild type. For each drug, we identified the MIC provided in the pooled ASKA plasmid library, and compared it to the MIC of the wild-type strain carrying the empty ASKA plasmid.
The ASKA library (a complete set of E. coli K-12 ORF archive) includes every E. coli ORF cloned into an expression vector (pCA24N)[65]. Prior to screening, the ASKA plasmid collection was pooled and transformed into E. coli K-12 BW25113 strain[66]. The plasmid pool was created by pooling an equal aliquot of cells, each carrying different members of the ASKA library, followed by plasmid miniprep. Next, the plasmid pool was electroporated into E. coli K-12 BW25113 competent cells. […] For the MICs measurements 500 000 cells were inoculated in each well which represents ~100 times coverage of each library member. […] Prior to the measurements the cell population containing the pooled overexpression library or the control strain containing the empty vector were grown in three replicates in LB medium supplemented with 20 µg/mL CHL. As the culture reached high density (i.e., OD600 > 0.8), expression of the plasmid was induced by 50 µM IPTG for 1 h. Following induction, 5 × 10^5 bacterial cells were inoculated in three replicates into each well of the 96-well plate and incubated for 16–18 h at 37 °C. Following incubation the MIC values were determined by measuring optical densities in a plate reader (Biotek Synergy).

E.coli K-12 BW25113 = details: for MIC (freshly prepared AMP): plates inoculated immediately; for MIC (pre-incubated AMP): plates pre-incubated 72 hours before inoculation
Description: MICs were determined using a standard serial broth dilution technique. Briefly, 11-step serial dilutions were prepared in 96-well microtiter plates with three replicates per strain and antimicrobial compound. Each experiment was repeated at least twice. 5 × 10^5 cells/mL were inoculated into each well, and the plates were incubated at 30 °C in case of E. coli K-12 BW25113, and its antibiotic and AMP-adapted lines, or 37 °C in case of the other bacterial species. Plates were shaken at 300 r.p.m. during incubation for 24 and 18 h, respectively. Cell growth was monitored by measuring the optical density (OD600 value, Biotek Synergy 2 microplate reader was used for this purpose). […] Relative MIC was calculated as follows: MICrelative = MICevolved/MICcontrol.
Supplementary Table 7- Effect of incubation time on the minimum inhibitory concentration (MIC) of AMPs. We tested whether the prolonged incubation time can affect the MIC of AMPs. To test this, two sets of AMP containing MIC plates were prepared in parallel. The first set was immediately inoculated with E.coli K-12 BW25113, while the second set was pre-incubated 72 hours before inoculation with the […]
observed in the MIC between freshly prepared and pre-incubated plates. […]

[3] = replicate 1 (first line of the sheet)
[4] = starting wild-type strain of the evolution experiment, broth dilution, MS medium, 5 × 10^5 cells/mL, 30 °C, 24 h, MIC = OD600 < 0.05
[5] = time allowed for bacterial growth 48 hours
[6] = time allowed for bacterial growth 24 hours
[7] = time allowed for bacterial growth 72 hours

Question: CC1(C)S[C@@H]2[C@H](NC(=O)[C@H](N)c3ccccc3)C(=O)N2[C@H]1C(=O)O [APC, Ampicillin] was tested. Which MIC (E. coli K-12 BW25113; Escherichia coli, BW25113, 24 h, read-out: MIC) did it give?
Answer: 6.2 µg/mL

Question: What about the “integral (measured integral data)” value [1, 3] of the same compound?
Answer: 10905.8

Question: And the “normalized integral (integral normalized to wild-type)” value (“normalized integral” below) [1, 3]?
Answer: 0.2843

Question: What about the “integral (measured integral data)” value ([1]; replicate 2) of the same compound?
Answer: 12217.4

Question: What about the “normalized integral” value ([1]; replicate 2) of the same compound?
Answer: 0.3185

Question: What about the “integral (measured integral data)” value ([1]; replicate 3) of the same compound?
Answer: 11200

Question: What about the “normalized integral” value ([1]; replicate 3) of the same compound?
Answer: 0.292

Question: What about the “integral (measured integral data)” value ([1]; replicate 4) of the same compound?
Answer: 11338.5

Question: What about the “normalized integral” value ([1]; replicate 4) of the same compound?
Answer: 0.2956

Question: And the “integral (measured integral data)” value ([1]; replicate 5)?
Answer: 13182.1

Question: What about the “normalized integral” value ([1]; replicate 5) of the same compound?
Answer: 0.3436

Question: And the MIC ([2]; BW25113, Replicate 1, read-out: MIC value of E. coli K-12 BW25113 carrying the empty plasmid of the ASKA library)?
Answer: 4 µg/mL

Question: And the MIC ([2]; BW25113, Replicate 1, read-out: MIC value of E. coli K-12 BW25113 carrying the pooled plasmids of the ASKA library)?
Answer: 256 µg/mL

Question: And the MIC ([2]; BW25113, Replicate 2, read-out: MIC value of E. coli K-12 BW25113 carrying the empty plasmid of the ASKA library)?
Answer: 4 µg/mL

Question: What about the MIC ([2]; BW25113, Replicate 2, read-out: MIC value of E. coli K-12 BW25113 carrying the pooled plasmids of the ASKA library) of the same compound?
Answer: 256 µg/mL

Question: What about the MIC ([2]; BW25113, Replicate 3, read-out: MIC value of E. coli K-12 BW25113 carrying the empty plasmid of the ASKA library) of the same compound?
Answer: 4 µg/mL

Question: What about the MIC ([2]; BW25113, Replicate 3, read-out: MIC value of E. coli K-12 BW25113 carrying the pooled plasmids of the ASKA library) of the same compound?
Answer: 256 µg/mL

Question: What does the source list for CC[C@H](C)[C@H](NC(=O)[C@H](CCCCN)NC(=O)[C@H](CCC(=O)O)NC(=O)[C@H](CCCCN)NC(=O)[C@H](CO)NC(=O)[C@H](CCCCN)NC(=O)[C@H](CCCNC(=N)N)NC(=O)[C@H](Cc1ccccc1)NC(=O)[C@H](Cc1ccccc1)NC(=O)[C@H](CC(=O)O)NC(=O)CNC(=O)[C@H](CC(C)C)NC(=O)[C@@H](N)CC(C)C)C(=O)NCC(=O)N[C@@H](CCCCN)C(=O)N[C@@H](CCC(=O)O)C(=O)N[C@@H](Cc1ccccc1)C(=O)N[C@@H](CCCCN)C(=O)N[C@@H](CCCNC(=N)N)C(=O)N[C@H](C(=O)N[C@H](C(=O)N[C@@H](CCC(N)=O)C(=O)N[C@@H](CCCNC(=N)N)C(=O)N[C@H](C(=O)N[C@@H](CCCCN)C(=O)N[C@@H](CC(=O)O)C(=O)N[C@@H](Cc1ccccc1)C(=O)N[C@@H](CC(C)C)C(=O)N[C@@H](CCCNC(=N)N)C(=O)N[C@@H](CC(N)=O)C(=O)N[C@@H](CC(C)C)C(=O)N[C@H](C(=O)N1CCC[C@H]1C(=O)N[C@@H](CCCNC(=N)N)C(=O)N[C@H](C(=O)N[C@@H](CCC(=O)O)C(=O)N[C@@H](CO)C(=O)O)[C@@H](C)O)C(C)C)[C@@H](C)CC)C(C)C)[C@@H](C)CC [LL37, cathelicidin antimicrobial peptide LL-37]?
Answer: MIC (E. coli K-12 BW25113; [4]): 100 µg/mL; MIC value of E. coli K-12 BW25113 carrying the empty plasmid of the ASKA library ([2]; Replicate 1): 14.45 µg/mL; MIC value of E. coli K-12 BW25113 carrying the pooled plasmids of the ASKA library ([2]; Replicate 1): 14.45 µg/mL; MIC value of E. coli K-12 BW25113 carrying the empty plasmid of the ASKA library ([2]; Replicate 2): 12.04 µg/mL; MIC value of E. coli K-12 BW25113 carrying the pooled plasmids of the ASKA library ([2]; Replicate 2): 17.34 µg/mL; MIC value of E. coli K-12 BW25113 carrying the empty plasmid of the ASKA library ([2]; Replicate 3): 14.45 µg/mL; MIC value of E. coli K-12 BW25113 carrying the pooled plasmids of the ASKA library ([2]; Replicate 3): 14.45 µg/mL; MIC (freshly prepared AMP) (E.coli K-12 BW25113; [5]): 17.4 µg/mL; MIC (pre-incubated AMP) (E.coli K-12 BW25113; [6]): 17.4 µg/mL; MIC (pre-incubated AMP) (E.coli K-12 BW25113; [5]): 17.4 µg/mL; MIC (pre-incubated AMP) (E.coli K-12 BW25113; [7]): 17.4 µg/mL

Question: How did the MIC (E. coli K-12 BW25113; [4]) turn out when “RFRPPIRRPPIRPPFYPPFRPPIRPPIFPPIRPPFRPPLGPFP [BAC5, Bactenecin 5]” was run?
Answer: 7 µg/mL

Question: What about the “MIC value of E. coli K-12 BW25113 carrying the empty plasmid of the ASKA library” value ([2]; Replicate 1) of the same compound?
Answer: 5.79 µg/mL

Question: And the “MIC value of E. coli K-12 BW25113 carrying the pooled plasmids of the ASKA library” value ([2]; Replicate 1)?
Answer: 4.82 µg/mL

Question: And the “MIC value of E. coli K-12 BW25113 carrying the empty plasmid of the ASKA library” value ([2]; Replicate 2)?
Answer: 5.79 µg/mL

Question: What about the “MIC value of E. coli K-12 BW25113 carrying the pooled plasmids of the ASKA library” value ([2]; Replicate 2) of the same compound?
Answer: 5.79 µg/mL

Question: What about the “MIC value of E. coli K-12 BW25113 carrying the empty plasmid of the ASKA library” value ([2]; Replicate 3) of the same compound?
Answer: 5.79 µg/mL

Question: And the “MIC value of E. coli K-12 BW25113 carrying the pooled plasmids of the ASKA library” value ([2]; Replicate 3)?
Answer: 4.82 µg/mL

Question: What about the “MIC (freshly prepared AMP)” value (E.coli K-12 BW25113; [6]) of the same compound?
Answer: 14.5 µg/mL

Question: What about the “MIC (freshly prepared AMP)” value (E.coli K-12 BW25113; [5]) of the same compound?
Answer: 14.5 µg/mL

Question: What about the “MIC (freshly prepared AMP)” value (E.coli K-12 BW25113; [7]) of the same compound?
Answer: 14.5 µg/mL

Question: What about the “MIC (pre-incubated AMP)” value (E.coli K-12 BW25113; [6]) of the same compound?
Answer: 14.5 µg/mL

Question: And the “MIC (pre-incubated AMP)” value (E.coli K-12 BW25113; [5])?
Answer: 14.5 µg/mL

Question: And the “MIC (pre-incubated AMP)” value (E.coli K-12 BW25113; [7])?
Answer: 14.5 µg/mL
